Reference: paper PMC10410440, “Preclinical PK investigation of a novel IDO1/TDO dual inhibitor—SHR9146 in mouse plasma and tissues by LC-MS/MS” (Frontiers in Oncology, 2023)
Where two headings read alike, the source gives them in different places.

Assay: Plasma pharmacokinetics of SHR9146 in mice (LC-MS/MS, non-compartmental analysis)
Format: in vivo, ICR mice
Conditions: for MRT inf: read-out: MRT0-∞
Description: ICR mice with body weight 16–26 g were supplied by Shanghai Lingchang Biotechnology Co., Ltd. (animal breeding license number SCXK (Shanghai) 2013-0018) and housed at Shanghai Institute of Materia Medica, Chinese Academy of Sciences [animal use license number SYXK (Shanghai) 2015-0027]. The mice used in this study were fasted overnight for 12 h but had free access to water. Food was supplied 4 h post-dose. All experiments in this study were conducted in accordance with the Guidelines for the Care and Use of Laboratory Animals of Shanghai Institute of Materia Medica, Chinese Academy of Sciences.
A total of 30 mice were randomly assigned into five groups with equal numbers, males and females. One group was intravenously administrated with 5 mg/kg SHR9146 dissolved in […] plus 95% saline (adjusted pH to 4.0) under sterile conditions. The remaining four groups were administered respectively with a single dose of 20 , 40, or 80 mg/kg or multiple doses of 20 mg/kg twice daily for 7 days, by oral gavage of SHR9146 dissolved in 0.5% CMC-Na. Blood samples were obtained from the fossa orbitalis vein at 15 and 30 min and 1.0, 2.0, 4.0, 6.0, 8.0, 10.0, and 24.0 h after oral gavage administration. An additional 5-min time point was included for iv injection, as well as the pre-drug administration time points on the fifth, sixth, and seventh days in the multiple-dose group. The blood samples were collected in EDTA K2 anticoagulant blood collection tubes and centrifuged at 1,000 rpm for 5 min at 4°C. The supernatant plasma samples were thus produced.
Briefly as follows, an aliquot of 25-μL plasma or tissue homogenate was spiked with 100 μL of internal standard solution (1 μg/mL for plasma, 0.2 μg/mL for tissue homogenate) and 300 μL of methanol added and vortex mixed for 60 s. The mixture was then centrifuged at 14,000 rpm at 4°C for 5.0 min, and the supernatant was diluted with methanol–water (4:1, v/v) in a ratio of 1:9 for the plasma or 1:1 for the tissue homogenate, and 5 μL of the resulting solution was injected for the LC-MS/MS analysis.
The pharmacokinetic parameters of SHR9146 in mouse plasma were estimated by Phoenix 1.4 software using a non-compartmental model.
The mean concentration–time curves of SHR9146 in mouse plasma after a single oral gavage dose of 20, 40, or 80 mg/kg, or a single intravenous dose of 5 mg/kg, or the 7th-day steady state after twice-daily multiple oral doses of 20 mg/kg are shown in Figure 5 (Table S6).

[1] = 20 mg/kg i.g. single dose, all mice (Totol, 3 male + 3 female), plasma
[2] = 20 mg/kg i.g. single dose, female mice, plasma
[3] = 20 mg/kg i.g. single dose, male mice, plasma
[4] = 20 mg/kg oral twice daily for 7 days vs single 20 mg/kg oral dose, mice
[5] = 40 mg/kg i.g. single dose, male mice, plasma
[6] = 80 mg/kg i.g. single dose, all mice (Totol, 3 male + 3 female), plasma
[7] = 80 mg/kg i.g. single dose, female mice, plasma
[8] = 80 mg/kg i.g. single dose, male mice, plasma
[9] = ICR, mouse, iv, 5 mg/kg i.v. single dose, female mice, plasma
[10] = ICR, mouse, iv, 5 mg/kg i.v. single dose, male mice, plasma
[11] = both sexes, ICR, mouse, iv, 5 mg/kg i.v. single dose, all mice (Totol, 3 male + 3 female), plasma
[12] = both sexes, ICR, mouse, plasma, intravenous, 5 mg/kg, 5 mg/kg i.v., read-out: plasma drug concentration, individual mice #1-#6
[13] = both sexes, ICR, mouse, plasma, intravenous, 5 mg/kg, 5 mg/kg i.v., read-out: plasma drug concentration, mean (n=6)
[14] = both sexes, ICR, mouse, plasma, oral, 20 mg/kg, 20 mg/kg i.g. bid, 7 days, 7th day, read-out: plasma drug concentration, individual mice #1-#6
[15] = both sexes, ICR, mouse, plasma, oral, 20 mg/kg, 20 mg/kg i.g. bid, 7 days, 7th day, read-out: plasma drug concentration, mean (n=6)
[16] = both sexes, ICR, mouse, plasma, oral, 20 mg/kg, 20 mg/kg i.g. single, read-out: plasma drug concentration, mean (n=6)
[17] = both sexes, ICR, mouse, plasma, oral, 40 mg/kg, 40 mg/kg i.g. single, read-out: plasma drug concentration, mean (n=6)

- plasma drug concentration, individual mice #1-#6 (5 mg/kg i.v., 4 h): BLQ
- plasma drug concentration, individual mice #1-#6 (5 mg/kg i.v., 6 h): BLQ
- plasma drug concentration, individual mice #1-#6 (5 mg/kg i.v., 8 h): BLQ
- plasma drug concentration, individual mice #1-#6 (5 mg/kg i.v., 10 h): BLQ
- plasma drug concentration, individual mice #1-#6 (5 mg/kg i.v., 24 h): BLQ
- CL as share of the blood flow of mouse liver (5 mg/kg i.v., liver blood flow around 90 mL/min/kg (ref 23)): 13.3%
- Vd as share of the total body fluid of mice (5 mg/kg i.v., total body fluid around 0.725 L/kg (ref 23)): 91.9%
- CL (20 mg/kg i.g. bid, 7 days (7th-day steady state), all mice (Totol, 3 male + 3 female), plasma): 13.7 mL/min/kg
- CL (20 mg/kg i.g. bid, 7 days (7th-day steady state), female mice, plasma): 13.7 mL/min/kg
- CL (20 mg/kg i.g. bid, 7 days (7th-day steady state), male mice, plasma): 13.6 mL/min/kg
- plasma drug concentration, individual mice #1-#6 (20 mg/kg i.g. bid, 7 days, 7th day, 0 h): BLQ
- plasma drug concentration, individual mice #1-#6 (20 mg/kg i.g. bid, 7 days, 7th day, 8 h): BLQ
- plasma drug concentration, individual mice #1-#6 (20 mg/kg i.g. bid, 7 days, 7th day, 10 h): BLQ
- plasma drug concentration, individual mice #1-#6 (20 mg/kg i.g. bid, 7 days, 7th day, 24 h): BLQ
- plasma drug concentration, individual mice #1-#6 (20 mg/kg i.g. bid, 7 days, Fifth day, pre-drug administration): BLQ
- plasma drug concentration, individual mice #1-#6 (20 mg/kg i.g. bid, 7 days, Sixth day, pre-drug administration): BLQ
- plasma drug concentration, individual mice #1-#6 (20 mg/kg i.g. single (dose cell empty, taken from the line above), 24 h): BLQ
- CL [1]: 20.5 mL/min/kg
- Vd [1]: 2.02 L/kg
- CL [2]: 18.6 mL/min/kg
- Vd [2]: 1.88 L/kg
- CL [3]: 22.8 mL/min/kg
- Vd [3]: 2.189 L/kg
- plasma drug concentration, individual mice #1-#6 (20 mg/kg i.g. single, 4 h): BLQ
- plasma drug concentration, individual mice #1-#6 (20 mg/kg i.g. single, 6 h): BLQ
- plasma drug concentration, individual mice #1-#6 (20 mg/kg i.g. single, 8 h): BLQ
- plasma drug concentration, individual mice #1-#6 (20 mg/kg i.g. single, 10 h): BLQ
- steady-state AUC relative to single oral dose [4]: 1.55 fold
- steady-state Cmax relative to single oral dose [4]: 1.08 fold
- accumulation after multiple oral doses (20 mg/kg oral twice daily for 7 days, mouse plasma): no significant accumulation
- CL [5]: 20.0 mL/min/kg
- Vd [5]: 3.07 L/kg
- plasma drug concentration, individual mice #1-#6 (40 mg/kg i.g. single, 6 h): BLQ
- plasma drug concentration, individual mice #1-#6 (40 mg/kg i.g. single, 8 h): BLQ
- plasma drug concentration, individual mice #1-#6 (40 mg/kg i.g. single, 10 h): BLQ
- plasma drug concentration, individual mice #1-#6 (40 mg/kg i.g. single, 24 h): BLQ
- CL [6]: 18.8 mL/min/kg
- Vd [6]: 5.19 L/kg
- CL [7]: 20.2 mL/min/kg
- Vd [7]: 4.00 L/kg
- CL [8]: 17.6 mL/min/kg
- Vd [8]: 6.22 L/kg
- plasma drug concentration, individual mice #1-#6 (80 mg/kg i.g. single, 6 h): BLQ
- plasma drug concentration, individual mice #1-#6 (80 mg/kg i.g. single, 8 h): BLQ
- plasma drug concentration, individual mice #1-#6 (80 mg/kg i.g. single, 24 h): BLQ
- clearance [9]: 12.1 mL/min/kg
- MRT inf [9]: 0.882 h
- Vd (ICR, mouse, iv, 5 mg/kg i.v. single dose, female mice, plasma, read-out: Vd): 0.638 L/kg
- clearance [10]: 12 mL/min/kg
- MRT inf [10]: 0.965 h
- Vd (ICR, mouse, iv, 5 mg/kg i.v. single dose, male mice, plasma, read-out: Vd): 0.694 L/kg
- concentration at 8 h (ICR, mouse, plasma, intravenous, 5 mg/kg, 5 mg/kg i.v., 8 h, read-out: plasma drug concentration, individual mice #1-#6): 149 ng/mL
- MRT inf (ICR, mouse, po, 20 mg/kg i.g. single dose, female mice, plasma): 1.68 h
- MRT inf (ICR, mouse, po, 20 mg/kg i.g. single dose, male mice, plasma): 1.6 h
- MRT inf (ICR, mouse, po, 40 mg/kg i.g. single dose, male mice, plasma): 2.56 h
- MRT inf (ICR, mouse, po, 80 mg/kg i.g. single dose, female mice, plasma): 3.29 h
- MRT inf (ICR, mouse, po, 80 mg/kg i.g. single dose, male mice, plasma): 5.9 h
- clearance [11]: 12 mL/min/kg
- MRT inf [11]: 0.923 h
- Vd (both sexes, ICR, mouse, iv, 5 mg/kg i.v. single dose, all mice (Totol, 3 male + 3 female), plasma, read-out: Vd): 0.666 L/kg
- concentration at 0.083 h [12]: 7880 ng/mL
- concentration at 0.083 h [13]: 6860 ng/mL
- concentration at 0.25 h [12]: 5210 ng/mL
- concentration at 0.25 h [13]: 5230 ng/mL
- concentration at 0.5 h [12]: 4530 ng/mL
- concentration at 0.5 h [13]: 3610 ng/mL
- concentration at 1 h [12]: 2450 ng/mL
- concentration at 1 h [13]: 2760 ng/mL
- concentration at 2 h [13]: 605 ng/mL
- concentration at 4 h (both sexes, ICR, mouse, plasma, intravenous, 5 mg/kg, 5 mg/kg i.v., 4 h, read-out: plasma drug concentration, mean (n=6)): 126 ng/mL
- AUC(0-inf) (both sexes, ICR, mouse, plasma, iv, 5 mg/kg, 5 mg/kg i.v. single dose, all mice (Totol, 3 male + 3 female), plasma): 6930 ng·h/mL
- AUC(0-t) (both sexes, ICR, mouse, plasma, iv, 5 mg/kg, 5 mg/kg i.v. single dose, all mice (Totol, 3 male + 3 female), plasma, read-out: AUC0-t): 6760 ng·h/mL
- half-life (both sexes, ICR, mouse, plasma, iv, 5 mg/kg, 5 mg/kg i.v. single dose, all mice (Totol, 3 male + 3 female), plasma, read-out: t1/2 (converted)): 0.713 h
- half-life (both sexes, ICR, mouse, plasma, mice, all doses and routes except the high oral dose (80 mg/kg), read-out: mean terminal half-life in plasma, range): 0.699 to 1.66 h
- concentration at 0.25 h [14]: 4300 ng/mL
- concentration at 0.25 h [15]: 5710 ng/mL
- concentration at 0.5 h [15]: 8020 ng/mL
- concentration at 1 h [14]: 9900 ng/mL
- concentration at 1 h [15]: 9430 ng/mL
- concentration at 2 h [15]: 6170 ng/mL
- concentration at 3 h [15]: 3170 ng/mL
- concentration at 4 h (both sexes, ICR, mouse, plasma, oral, 20 mg/kg, 20 mg/kg i.g. bid, 7 days, 7th day, 4 h, read-out: plasma drug concentration, mean (n=6)): 1590 ng/mL
- concentration at 6 h (both sexes, ICR, mouse, plasma, oral, 20 mg/kg, 20 mg/kg i.g. bid, 7 days, 7th day, 6 h, read-out: plasma drug concentration, mean (n=6)): 453 ng/mL
- concentration at 8 h (both sexes, ICR, mouse, plasma, oral, 20 mg/kg, 20 mg/kg i.g. bid, 7 days, 7th day, 8 h, read-out: plasma drug concentration, mean (n=6)): 58 ng/mL
- concentration at 10 h (both sexes, ICR, mouse, plasma, oral, 20 mg/kg, 20 mg/kg i.g. bid, 7 days, 7th day, 10 h, read-out: plasma drug concentration, individual mice #1-#6): 58 ng/mL
- concentration at 24 h (both sexes, ICR, mouse, plasma, oral, 20 mg/kg, 20 mg/kg i.g. bid, 7 days, 7th day, 24 h, read-out: plasma drug concentration, individual mice #1-#6): 54 ng/mL
- concentration at 0.25 h [16]: 7500 ng/mL
- concentration at 0.5 h [16]: 8140 ng/mL
- concentration at 1 h [16]: 4620 ng/mL
- concentration at 2 h [16]: 3980 ng/mL
- concentration at 3 h [16]: 2950 ng/mL
- concentration at 4 h (both sexes, ICR, mouse, plasma, oral, 20 mg/kg, 20 mg/kg i.g. single, 4 h, read-out: plasma drug concentration, mean (n=6)): 526 ng/mL
- concentration at 6 h (both sexes, ICR, mouse, plasma, oral, 20 mg/kg, 20 mg/kg i.g. single, 6 h, read-out: plasma drug concentration, individual mice #1-#6): 242 ng/mL
- concentration at 8 h (both sexes, ICR, mouse, plasma, oral, 20 mg/kg, 20 mg/kg i.g. single, 8 h, read-out: plasma drug concentration, individual mice #1-#6): 194 ng/mL
- concentration at 0.25 h [17]: 4830 ng/mL
- concentration at 0.5 h [17]: 5310 ng/mL
Structure (SMILES): OCCn1cc(-c2ccc(N3CCC([C@H]4c5c(F)cccc5-c5cncn54)CC3)cc2)cn1 [SHR9146]
